According to patent US20050245563A1 (Millennium Pharmaceuticals, Inc., priority 2003, published 2005):

These molecules were tested against T1, human Chk1 (GST-Chk1) (Homo sapiens, UniProt O14757) (assay: Chk1 DELFIA kinase assay (2 nM GST-Chk1, 600 μM ATP)). Settings: Biotin-GLYRSPSMPEN-amide substrate.
T1 construct: made in house; host or cells: insect cells (baculovirus, Bac-to-Bac)
T1 sequence (O14757 1-476): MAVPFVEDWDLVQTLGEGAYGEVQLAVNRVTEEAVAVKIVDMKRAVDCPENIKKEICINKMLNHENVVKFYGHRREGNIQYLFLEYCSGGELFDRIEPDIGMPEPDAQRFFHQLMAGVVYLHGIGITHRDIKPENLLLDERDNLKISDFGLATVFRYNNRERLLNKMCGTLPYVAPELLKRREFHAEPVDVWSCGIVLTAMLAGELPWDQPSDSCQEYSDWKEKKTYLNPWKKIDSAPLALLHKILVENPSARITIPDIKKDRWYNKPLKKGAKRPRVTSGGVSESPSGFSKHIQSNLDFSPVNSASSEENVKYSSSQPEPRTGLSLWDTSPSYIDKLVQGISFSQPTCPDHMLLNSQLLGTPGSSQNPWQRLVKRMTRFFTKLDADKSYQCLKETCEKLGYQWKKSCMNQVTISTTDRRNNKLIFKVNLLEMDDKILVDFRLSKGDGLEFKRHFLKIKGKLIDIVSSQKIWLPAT
Type: biochemical
Experimental: Recombinant human Chk1 was expressed as a fusion protein with glutathione S-transferase at the amino-terminus (GST-Chk1) using standard baculovirus vectors and (Bac-to-Bac®) insect cell expression system purchased from GIBCO™ Invitrogen. Recombinant protein expressed in insect cells was purified using glutathione sepharose (Amersham Biotech) using standard procedures described by the manufacturer.
Chk1 DELFIA® Kinase Assay:
Assays (25 μL) utilized 2 nM GST-Chk1 containing 10 mM Tris, pH 7.5, 20% glycerol, 50 mM sodium chloride (NaCl), 0.01% Surfact-Amps® 20, 1 μM peptide stubstrate (Biotin-GLYRSPSMPEN-amide) (SEQ ID NO: 3), 01.% BSA, 2 mM DTT, 4% DMSO, 600 μM ATP, 10 MM MgCl2 and reacted for 50 minutes at room temperature. Reactions were terminated with 100 μL of Stop buffer containing 1% BSA, 10 mM Tris, pH 8.0, 150 mM NaCl, 100 mM EDTA. Stopped reactions (100 μL) were transferred to 96 well NeutrAvidin plates (Pierce) to capture the biotin-peptide substrate during a 30 minute room temperature incubation. Wells were washed and reacted with 100 μL PerkinElmer Wallac Assay Buffer containing 21.5 ng/ml anti-phospho-Ser216-Cdc25c rabbit polyclonal antibody from Cell Signaling Technology (Beverly, Mass.) and 292 ng/ml europium labeled anti-rabbit-IgG for 1 hour at room temperature. Wells were washed and europium released from the bound antibody by addition of Enhancement Solution (100 μL) (PerkinElmer Wallac) and detected using a Perkin Elmer Wallac Envison™ 2100 multilabel reader using standard manufacturer settings.
For `Cc1[nH]nc2c1c(=O)n(CCCN)c1ccc(NC(=O)[C@H]3CCCN3)cc21` [Example 263, Pyrrolidine-2R-carboxylic acid [5-(3-amino-propyl)-3-methyl-4-oxo-4,5-dihydro-2H-pyrazolo[4,3-c]quinolin-8-yl]-amide], the IC50 was < 1000 nM. With `Cc1[nH]nc2c1c(=O)n(CCCN)c1ccc(NC(=O)CN(C)C)cc21` [Example 264, N-[5-(3-aminopropyl)-3-methyl-4-oxo4,5-dihydro-2H-pyrazolo[4,3-c]quinolin-8-yl]-2-dimethylaminoacetamide] the IC50 was < 1000 nM. For `COC(=O)/C(=C/c1ccc2c(c1)c1n[nH]c(C)c1c(=O)n2CCCN)NC(C)=O` [Example 270, 2-Acetylamino-3-[5-(3-amino-propyl)-3-methyl-4-oxo-4,5-dihydro-2H-pyrazolo[4,3-c]quinolin-8-yl]-acrylic acid methyl ester], the IC50 was < 1000 nM. `Cc1[nH]nc2c1c(=O)n(CCCN)c1ccc(C#N)cc21` [Example 271, 5-(3-Amino-propyl)-3-methyl-4-oxo-4,5-dihydro-2H-pyrazolo[4,3-c]quinoline-8-carbonitrile] was tested, and the IC50 was < 1000 nM. With `Cc1[nH]nc2c1c(=O)n(CCCN)c1ccc(C#CCO)cc21` [Example 272, 5-(3-Amino-propyl)-8-(3-hydroxy-prop-1-ynyl)-3-methyl-2,5-dihydro-pyrazolo[4,3-c]quinolin-4-one] the IC50 was < 1000 nM. `Cc1[nH]nc2c1c(=O)n(CCCN)c1ccc(C#CCN)cc21` [Example 273, 5-(3-Amino-propyl)-8-(3-amino-prop-1-ynyl]-3-methyl 2,5-dihydro-pyrazolo[4,3-c]quinolin-4-one] was tested, and the IC50 was < 1000 nM. In the case of `CNCC#Cc1ccc2c(c1)c1n[nH]c(C)c1c(=O)n2CCCN` [Example 274, 5-(3-Amino-propyl)-3-methyl 8-(3-methylamino-prop-1-ynyl]-2,5-dihydro-pyrazolo[4,3-c]quinolin-4-one], the IC50 is reported as < 1000 nM. With `Cc1[nH]nc2c1c(=O)n(CCCN)c1ccc(C#CCN(C)Cc3ccccc3)cc21` [Example 275, 5-(3-Amino-propyl)-8-[3-(benzyl-methyl-amino)-prop-1-ynyl]-3-methyl-2,5-dihydro-pyrazolo[4,3-c]quinolin-4-one] the IC50 was < 1000 nM. For `CC(=O)NCC#Cc1ccc2c(c1)c1n[nH]c(C)c1c(=O)n2CCCN` [Example 276, N-{^3-[5-(3-Amino-propyl)-3-methyl-4-oxo4,5-dihydro-2H-pyrazolo[4,3-c]quinolin-8-yl]-prop-2-ynyl]-acetamide], the IC50 was < 1000 nM. For `Cc1[nH]nc2c1c(=O)n(CCCN)c1ccc(C#Cc3cccnc3)cc21` [Example 277], the IC50 was < 1000 nM. In the case of `Cc1[nH]nc2c1c(=O)n(CCCN)c1ccc(C#Cc3ccccn3)cc21` [Example 278, 5-(3-Amino-propyl)-3-methyl-8-pyridin-2-ylethylynyl-2,5-dihydro-pyrazolo[4,3-c]quinolin-4-one], the IC50 is reported as < 1000 nM. `Cc1[nH]nc2c1c(=O)n(CCCN)c1ccc(C#Cc3ccncc3)cc21` [Example 279, 5-(3-Amino-propyl)-3-methyl-8-pyridin-4-ylethylynyl-2,5-dihydro-pyrazolo[4,3-c]quinolin-4-one] was tested, and the IC50 was < 1000 nM. In the case of `Cc1[nH]nc2c1c(=O)n(CCCN)c1ccc(C#CCOc3ccccc3)cc21` [Example 280, 5-(3-Amino-propyl)-3-methyl-8-(3-phenoxy-prop-1-ynyl)-2,5-dihydro-pyrazolo[4,3-c]quinolin-4-one], the IC50 is reported as < 1000 nM. With `COCC#Cc1ccc2c(c1)c1n[nH]c(C)c1c(=O)n2CCCN` [Example 281, 5-(3-Amino-propyl)-8-(3-methoxy-prop-1-ynyl)-3-methyl-2,5-dihydro-pyrazolo[4,3-c]quinolin-4-one] the IC50 was < 1000 nM. `Cc1[nH]nc2c1c(=O)n(CCCN)c1ccc(C#CC(C)O)cc21` (stereo not shown) [Example 282, 5-(3-Amino-propyl)-8-(3-hydroxy-but-1-ynyl)-3-methyl 2,5-dihydro-pyrazolo[4,3-c]quinolin-4-one] was tested, and the IC50 was < 1000 nM. In the case of `CC#Cc1ccc2c(c1)c1n[nH]c(C)c1c(=O)n2CCCN` [Example 283, 5-(3-Amino-propyl)-3-methyl 8-prop-1-ynyl-2,5-dihydro-pyrazolo[4,3-c]quinolin-4-one], the IC50 is reported as < 1000 nM. `Cc1[nH]nc2c1c(=O)n(CCCN)c1ccc(C#CCN(C)C)cc21` [Example 284, 5-(3-Amino-propyl)-8-(3-dimethylamino-prop-1-ynyl]-3-methyl 2,5-dihydro-pyrazolo[4,3-c]quinolin-4-one] was tested, and the IC50 was < 1000 nM. With `Cc1[nH]nc2c1c(=O)n(CCCN)c1ccc(C#CCN3CCCC3)cc21` [Example 285, 5-(3-Amino-propyl)-3-methyl-8-(3-pyrrolidin-1-yl-prop-1-ynyl]-2,5-dihydro-pyrazolo[4,3-c]quinolin4-one] the IC50 was < 1000 nM. With `Cc1[nH]nc2c1c(=O)n(CCCN)c1ccc(C#CCN3CCCCC3)cc21` [Example 286, 5-(3-Amino-propyl)-3-methyl-8-(3-piperidin-1-yl-prop-1-ynyl]-2,5-dihydro-pyrazolo[4,3-c]quinolin-4-one] the IC50 was < 1000 nM. With `CC(=O)N1CCN(CC#Cc2ccc3c(c2)c2n[nH]c(C)c2c(=O)n3CCCN)CC1` [Example 287, 8-[3-(4-Acetyl-piperazin-1-yl)-prop-1-ynyl]-5-(3-amino-propyl)-3-methyl-2,5-dihydro-pyrazolo[4,3-c]quinolin-4-one] the IC50 was < 1000 nM. With `Cc1[nH]nc2c1c(=O)n(CCCN)c1ccc(C#CCN3CCN(C)CC3)cc21` [Example 288, 5-(3-Amino-propyl)-3-methyl-8-[3-(4-methyl-piperazin-1-yl)-prop-1-ynyl]-2,5-dihydro-pyrazolo[4,3-c]quinolin-4-one] the IC50 was < 1000 nM. In the case of `Cc1[nH]nc2c1c(=O)n(CCCN)c1ccc(C#CCN3CCOCC3)cc21` [Example 289, 5-(3-Amino-propyl)-3-methyl-8-(3-morpholin-4-yl-prop-1-ynyl]-2,5-dihydro-pyrazolo[4,3-c]quinolin-4-one], the IC50 is reported as < 1000 nM. With `Cc1[nH]nc2c1c(=O)n(CCCN)c1ccc(C#CCn3ccnc3)cc21` [Example 290, 5-(3-Amino-propyl)-8-(3-imidazol-1-yl-prop-1-ynyl]-3-methyl-2,5-dihydro-pyrazolo[4,3-c]quinolin-4-one] the IC50 was < 1000 nM. With `C#Cc1ccc2c(c1)c1n[nH]c(C)c1c(=O)n2CCCN` [Example 291, 5-(3-Amino-propyl)-8-ethynyl-3-methyl-2,5-dihydro-pyrazolo[4,3-c]quinolin-4-one] the IC50 was < 1000 nM. For `C#Cc1ccc2c(c1)c1n[nH]c(CCOC)c1c(=O)n2CCCN` [Example 292, 5-(3-Amino-propyl)-8-ethynyl-3-(2-methoxy-ethyl)-2,5-dihydro-pyrazolo[4,3-c]quinolin-4-one], the IC50 was < 1000 nM. With `C#Cc1ccc2c(c1)c1n[nH]c(C)c1c(=O)n2CCCNC` [Example 293, 8-Ethynyl-3-methyl-5-(3-methylamino-propyl)-2,5-dihydro-pyrazolo[4,3-c]quinolin-4-one] the IC50 was < 1000 nM. With `CCc1ccc2c(c1)c1n[nH]c(C)c1c(=O)n2CCCN` [Example 294, 5-(3-Amino-propyl)-8-ethyl-3-methyl-2,5-dihydro-pyrazolo[4,3-c]quinolin4-one] the IC50 was < 1000 nM. `COCCCc1ccc2c(c1)c1n[nH]c(C)c1c(=O)n2CCCN` [Example 295, 5-(3-amino-propyl)-8-(3-methoxypropyl)-3-methyl-2,5-dihydro-pyrazolo[4,3-c]quinolin-4-one] was tested, and the IC50 was < 1000 nM.
